Laboratory results taken from paper PMC4446618, “SAR of Sponge-Inspired Hemibastadin Congeners Inhibiting Blue Mussel PhenolOxidase” (Marine Drugs, 2015).
Where two headings read alike, the source gives them in different places.

Experiments:
barnacle larvae = tested on: barnacle larvae; design: method as in PMID 17713818; settings: cited from earlier work
[1] = biological target: blue mussel phenoloxidase (PO); experiment: Blue mussel PO inhibition assay; format: biochemical, Mytilus edulis; settings: for IC50: purified enzyme, 25 °C, 10 mM L-DOPA, 50 mM phosphate buffer pH 6.8, 2 h incubation, triplicate; for enzyme inhibitory activity towards blue mussel PO (in words): compared to DBHB (1)
Method: PO activity was measured spectrophotometrically as described earlier. The purified enzyme was incubated at 25 °C with 10 mM L-DOPA in 50 mM phosphate buffer of pH 6.8. PO activity was determined by monitoring the increase of absorbance at 475 nm. One unit of enzyme activity was defined as the amount of enzyme that catalyzes the formation of 1 μmol dopachrome per minute under the described experimental conditions. Hemibastadin congeners were added to the assay at concentrations of up to 50 μg/mL. In addition, the biocide TBT (10 μg/mL) was used as a positive standard. Aliquots of pure enzyme were incubated for 2 h with hemibastadin analogues, then the enzyme activity was recorded with L-DOPA or catechol (10 mM) as substrates. All assays were run in triplicate. The results are presented as the concentration of compounds that reduces enzyme velocity by 50% (IC50 values). IC50 values were calculated using MINITAB (Version 14).

[2] = biological target: blue mussel phenoloxidase (PO); design: method as in PMID 21547349; settings: cited from earlier work; for IC50: data derived from a previous investigation, read-out: IC50, inhibition of blue mussel phenoloxidase (PO)

| IC50 [1] | SMILES | other results |
| --- | --- | --- |
| 0.81 µM | O=C(NCCc1cc(Br)c(O)c(Br)c1)/C(Cc1cc(Br)c(O)c(Br)c1)=N/O [Compound 1, 5,5′-dibromohemibastadin-1] | antifouling activity (in words) (barnacle larvae): strong antifouling activity |
| 1.14 µM | O=C(NCCc1cc(I)c(O)c(I)c1)/C(Cc1cc(I)c(O)c(I)c1)=N/O [Compound 4, Tetraiodo-norbromohemibastadin-1] |  |
| 1.19 µM | O=C(NCCc1cc(Cl)c(O)c(Cl)c1)/C(Cc1cc(Cl)c(O)c(Cl)c1)=N/O [Compound 5, Tetrachloro-norbromohemibastadin-1] |  |
| 22.7 ± 0.88 µM | O=C(NCCc1ccccc1)/C(Cc1cc(Br)c(O)c(Br)c1)=N/O [Compound 10, N-2-phenylethyl-3-(3,5-dibromo-4-hydroxyphenyl)-2-(2-hydroxyimino)-propanamide] | enzyme inhibitory activity towards blue mussel PO (in words) [1]: strong reduction of inhibitory activity |
| 33.2 ± 1.72 µM | O=C(NCCc1c[nH]cn1)/C(Cc1cc(Br)c(O)c(Br)c1)=N/O [Compound 11, N-[2-(4-imidazolyl)-ethyl]-3-(3,5-dibromo-4-hydroxyphenyl)-2-(2-hydroxyimino)-propanamide] | melting point: 130 °C |

Continued, compound first:

| SMILES | IC50 [1] | other results |
| --- | --- | --- |
| O=C(NCCc1ccc(O)cc1)/C(Cc1ccc(O)cc1)=N/O [Compound 2, Norbromohemibastadin-1] |  | IC50 [2]: 2.41 µM |
| NC(Cc1ccc(O)cc1)C(=O)NCCc1ccc(O)cc1 (stereo not shown) [Compound 3, Tyrosinyltyramine] |  | inhibition of blue mussel PO (in words) [2]: completely inactive; IC50 [2]: > 100 µM |
| CO/N=C(\Cc1cc(Br)c(OC)c(Br)c1)C(=O)NCCc1cc(Br)c(OC)c(Br)c1 [Compound 6, Tri-O-methyl-5,5′-dibromohemibastadin-1] | 18.9 ± 0.77 µM | reduction of the enzyme inhibitory activity compared to the parent compound 1 ([1]; relative to DBHB (1)): more than twenty-fold |
| O=C(NC1CCCCC1)/C(Cc1cc(Br)c(O)c(Br)c1)=N/O [Compound 7, N-cyclohexyl-3-(3,5-dibromo-4-hydroxyphenyl)-2-(2-hydroxyimino)-propanamide] | 11.7 ± 0.49 µM |  |
| CC(C)CNC(=O)/C(Cc1cc(Br)c(O)c(Br)c1)=N/O [Compound 8, N-(2-methyl-propyl)-3-(3,5-dibromo-4-hydroxyphenyl)-2-(2-hydroxyimino)-propanamide] | 17.2 ± 0.76 µM |  |
| CCCCCCNC(=O)/C(Cc1cc(Br)c(O)c(Br)c1)=N/O [Compound 9, N-hexyl-3-(3,5-dibromo-4-hydroxyphenyl)-2-(2-hydroxyimino)-propanamide] | 16.3 ± 0.83 µM |  |
| O=C(NCCc1c[nH]c2ccccc12)/C(Cc1cc(Br)c(O)c(Br)c1)=N/O [Compound 12, N-[2-(3-indolyl)-ethyl]-3-(3,5-dibromo-4-hydroxyphenyl)-2-(2-hydroxyimino)-propanamide] | > 100 µM | enzyme inhibitory activity towards blue mussel PO (in words) [1]: complete loss of activity |
| CC(=O)C(C)=NO [Compound 13, 2,3-butanedione monoxime, reference compound] |  | IC50 [2]: 8.7 µM |
